Test results reported in US20120302584A1, “NOVEL SALTS FORMS OF PYRIMIDIN-5-YL ACETIC ACID DERIVATIVE” (BOEHRINGER INGELHEIM INTERNATIONAL GMBH, priority 2009, published 2012).
Values after ≈ are worked out from the molar mass of the structure shown. Counter-ions that a name gives are not always drawn.

Columns and labels:
[1] = Kinetic solubility in sodium dodecyl sulfate solution at pH 6.8 and 37° C.; type: physicochemical; settings: for maximum solubility (kinetic solubility): pH 6.8, 0.2% sodium dodecyl sulfate (SDS) solution, after about 5 minutes
Description: FIG. 7 also depicts comparative kinetic solubility for the acid-free form of the compound of formula (I)(♦), a choline salt of the compound of formula (I)( ? ), and an ethylenediamine salt of the compound of formula (I) (▴).
After 60 minutes, the solubilities ranged from about 150 μg/mL (for the ethylenediamine salt of the compound of formula (I)) to about 245 μg/mL (for the choline salt of the compound of formula (I)).

[2] = Dynamic vapor sorption (water sorption/desorption); type: physicochemical; settings: 25° C.; for hygroscopicity (in words): conditions used in this analysis
Description: Vapor sorption/desorption was carried out using Surface Measurement Systems DVS-HT. Samples were placed into a foil insert placed on a sample pan. […] The equilibrium point of each step was reached when 0.002% of weight change was reached.

[3] = pH 6.8, 0.2% SDS solution, after 60 minutes

SMILES | maximum solubility (kinetic solubility) [1] | hygroscopicity (in words) [2] | moisture gain through 85% relative humidity [2] | solubility after 60 minutes (kinetic solubility) [1, 3] | further results
CN(C)c1nc(Cc2ccc(NC(=O)c3ccc(C(F)(F)F)cc3)cc2)nc(N(C)C)c1CC(=O)O [N-methyl-D-glucamine salt of the invention] [[4,6-bis(dimethylamino)-2-(4-{[4-(trifluoromethyl)benzoyl]amino}benzyl)pyrimidin-5-yl] acetic acid] | about 910 μg/mL | mild hygroscopicity | about 3.7% | – | –
CN(C)c1nc(Cc2ccc(NC(=O)c3ccc(C(F)(F)F)cc3)cc2)nc(N(C)C)c1CC(=O)O [[4,6-bis(dimethylamino)-2-(4-{[4-(trifluoromethyl)benzoyl]amino}benzyl)pyrimidin-5-yl] acetic acid, reference compound] | – | – | – | – | solubility kinetic at 60 min ([1]; 0.2% sodium dodecyl sulfate (SDS) solution, 37 °C, pH 6.8, aqueous with cosolvent or surfactant or cyclodextrin, pH 6.8, 0.2% SDS solution, after 60 minutes): ~245 µg/mL (≈ 489 µM)
CN(C)c1nc(Cc2ccc(NC(=O)c3ccc(C(F)(F)F)cc3)cc2)nc(N(C)C)c1CC(=O)O [choline salt of the compound of formula (I)] [[4,6-bis(dimethylamino)-2-(4-{[4-(trifluoromethyl)benzoyl]amino}benzyl)pyrimidin-5-yl] acetic acid, reference compound] | about 960 μg/mL | – | – | – | –
CN(C)c1nc(Cc2ccc(NC(=O)c3ccc(C(F)(F)F)cc3)cc2)nc(N(C)C)c1CC(=O)O [ethylenediamine salt of the compound of formula (I)] [[4,6-bis(dimethylamino)-2-(4-{[4-(trifluoromethyl)benzoyl]amino}benzyl)pyrimidin-5-yl] acetic acid, reference compound] | – | – | – | about 150 μg/mL | maximum solubility (kinetic solubility) ([1]; listed as ethylenediame salt of the compound of formula (I)): about 670 μg/mL
CN(C)c1nc(Cc2ccc(NC(=O)c3ccc(C(F)(F)F)cc3)cc2)nc(N(C)C)c1CC(=O)O [free acid form of the compound of formula (I)] [[4,6-bis(dimethylamino)-2-(4-{[4-(trifluoromethyl)benzoyl]amino}benzyl)pyrimidin-5-yl] acetic acid] | about 50 μg/mL | – | – | essentially unchanged | –
CN(C)c1nc(Cc2ccc(NC(=O)c3ccc(C(F)(F)F)cc3)cc2)nc(N(C)C)c1CC(=O)O [sodium salt of the invention, [4,6-bis(dimethylamino)-2-(4-{[4-(trifluoromethyl)benzoyl]amino}benzyl)pyrimidin-5-yl] acetic acid] | about 1010 μg/mL | hygroscopic | about 17% | – | moisture gain through 55% relative humidity ([2]; 55% relative humidity): less than 2%
